This is an account of results in doi:10.1101/2025.03.14.643404, “A Bivalent Molecular Glue Linking Lysine Acetyltransferases to Oncogene-induced Cell Death” (bioRxiv, 2025).

Structures are written as SMILES.

The target in one assay is T1, p300 (Homo sapiens, UniProt P41182+Q09472).
T1 construct: endogenous in cells; host or cells: SUDHL5
Kind of assay: p300 immunoprecipitation-mass spectrometry in SUDHL5. As to conditions: SUDHL5, 1 nM, 2 h, vs DMSO. Type of assay: cell-based. The method, then: 50 million FLAG-BCL6 knock-in SUDHL5 cells were treated compound or DMSO (0.1%) at indicated doses for 2 hours. Cells were lysed in NE10 buffer (20 mM HEPES (pH 7.5), 10 mM KCl, 1 mM MgCl2, 0.1% Triton X-100 (v/v), protease inhibitors (Roche), 15 mM ß-mercaptoethanol), dounced 15 times and pelleted 5 min at 500 g. Nuclei were washed in NE10 buffer and then digested with 250 units benzonase (Millipore) for 30 min rotating at 25°C. Nuclei were resuspended in NE150 buffer (NE10 supplemented with 150mM NaCl) and incubated for 20 min. Lysates were pelleted at 16,000 g for 20 min at 4°C and supernatants were immunoprecipitated by incubating with 2.5 μg FLAG M2 antibody (F1804, Millipore-Sigma) or 2.5 μg p300 (A300–358A, Bethyl Laboratories) antibody with Dynabeads Protein G (Thermo Fisher) overnight at 4°C. The IP fraction was recovered by magnetic separation followed by three washes with NE10 buffer containing 150mM–300mM NaCl but without Triton-X. For mass spectrometry analysis, the IP was then eluted from the beads with Ammonium Hydroxide, pH 11–12; 3% v/v. […]
The reconstituted desalted peptides were then analyzed using a nanoElute 2 UHPLC (Bruker Daltonics, Bremen, Germany) coupled to a timsTOF HT (Bruker Daltonics, Bremen, Germany) via a CaptiveSpray nano-electrospray source. […]

The subject of the next assay is p300^BD-BCL6^BTB. Kind of assay: TR-FRET ternary assay p300BD-BCL6BTB. In kind it is binding, human. The method, then:
10 μL reactions containing 10 nM 6x-His- p300^BD or 6x-His-CBP^BD, 200 nM BiotinylatedAvi-BCL6^BTB, 20 nM streptavidin-FITC (SA1001, Thermo), and 1:400 anti-6x-His-terbium (PerkinElmer 61HI2TLF) in buffer containing 20 mM HEPES pH 7.5, 150 mM NaCl, 0.1% BSA, 0.1% NP-40, and 1 mM TCEP were plated in low-volume 384 well plates. Drugs were digitally dispensed (Tecan D300e) into protein-containing wells, and the plate was allowed to incubate in the dark for 1 hour at room temperature. Emission at 490 nm (terbium) and 520 nm (FITC) was measured on a PHERAstar FS plate reader (BMG Labtech) upon excitation with 337 nm. The ratio of signal at 520 nm to 490 nm was calculated and normalized to DMSO-treated protein.
Background: In TR-FRET formats the signal depends on donor and acceptor labels being close together.

T1 sequence (Q09472 2-2414 limits assumed, other chains not shown): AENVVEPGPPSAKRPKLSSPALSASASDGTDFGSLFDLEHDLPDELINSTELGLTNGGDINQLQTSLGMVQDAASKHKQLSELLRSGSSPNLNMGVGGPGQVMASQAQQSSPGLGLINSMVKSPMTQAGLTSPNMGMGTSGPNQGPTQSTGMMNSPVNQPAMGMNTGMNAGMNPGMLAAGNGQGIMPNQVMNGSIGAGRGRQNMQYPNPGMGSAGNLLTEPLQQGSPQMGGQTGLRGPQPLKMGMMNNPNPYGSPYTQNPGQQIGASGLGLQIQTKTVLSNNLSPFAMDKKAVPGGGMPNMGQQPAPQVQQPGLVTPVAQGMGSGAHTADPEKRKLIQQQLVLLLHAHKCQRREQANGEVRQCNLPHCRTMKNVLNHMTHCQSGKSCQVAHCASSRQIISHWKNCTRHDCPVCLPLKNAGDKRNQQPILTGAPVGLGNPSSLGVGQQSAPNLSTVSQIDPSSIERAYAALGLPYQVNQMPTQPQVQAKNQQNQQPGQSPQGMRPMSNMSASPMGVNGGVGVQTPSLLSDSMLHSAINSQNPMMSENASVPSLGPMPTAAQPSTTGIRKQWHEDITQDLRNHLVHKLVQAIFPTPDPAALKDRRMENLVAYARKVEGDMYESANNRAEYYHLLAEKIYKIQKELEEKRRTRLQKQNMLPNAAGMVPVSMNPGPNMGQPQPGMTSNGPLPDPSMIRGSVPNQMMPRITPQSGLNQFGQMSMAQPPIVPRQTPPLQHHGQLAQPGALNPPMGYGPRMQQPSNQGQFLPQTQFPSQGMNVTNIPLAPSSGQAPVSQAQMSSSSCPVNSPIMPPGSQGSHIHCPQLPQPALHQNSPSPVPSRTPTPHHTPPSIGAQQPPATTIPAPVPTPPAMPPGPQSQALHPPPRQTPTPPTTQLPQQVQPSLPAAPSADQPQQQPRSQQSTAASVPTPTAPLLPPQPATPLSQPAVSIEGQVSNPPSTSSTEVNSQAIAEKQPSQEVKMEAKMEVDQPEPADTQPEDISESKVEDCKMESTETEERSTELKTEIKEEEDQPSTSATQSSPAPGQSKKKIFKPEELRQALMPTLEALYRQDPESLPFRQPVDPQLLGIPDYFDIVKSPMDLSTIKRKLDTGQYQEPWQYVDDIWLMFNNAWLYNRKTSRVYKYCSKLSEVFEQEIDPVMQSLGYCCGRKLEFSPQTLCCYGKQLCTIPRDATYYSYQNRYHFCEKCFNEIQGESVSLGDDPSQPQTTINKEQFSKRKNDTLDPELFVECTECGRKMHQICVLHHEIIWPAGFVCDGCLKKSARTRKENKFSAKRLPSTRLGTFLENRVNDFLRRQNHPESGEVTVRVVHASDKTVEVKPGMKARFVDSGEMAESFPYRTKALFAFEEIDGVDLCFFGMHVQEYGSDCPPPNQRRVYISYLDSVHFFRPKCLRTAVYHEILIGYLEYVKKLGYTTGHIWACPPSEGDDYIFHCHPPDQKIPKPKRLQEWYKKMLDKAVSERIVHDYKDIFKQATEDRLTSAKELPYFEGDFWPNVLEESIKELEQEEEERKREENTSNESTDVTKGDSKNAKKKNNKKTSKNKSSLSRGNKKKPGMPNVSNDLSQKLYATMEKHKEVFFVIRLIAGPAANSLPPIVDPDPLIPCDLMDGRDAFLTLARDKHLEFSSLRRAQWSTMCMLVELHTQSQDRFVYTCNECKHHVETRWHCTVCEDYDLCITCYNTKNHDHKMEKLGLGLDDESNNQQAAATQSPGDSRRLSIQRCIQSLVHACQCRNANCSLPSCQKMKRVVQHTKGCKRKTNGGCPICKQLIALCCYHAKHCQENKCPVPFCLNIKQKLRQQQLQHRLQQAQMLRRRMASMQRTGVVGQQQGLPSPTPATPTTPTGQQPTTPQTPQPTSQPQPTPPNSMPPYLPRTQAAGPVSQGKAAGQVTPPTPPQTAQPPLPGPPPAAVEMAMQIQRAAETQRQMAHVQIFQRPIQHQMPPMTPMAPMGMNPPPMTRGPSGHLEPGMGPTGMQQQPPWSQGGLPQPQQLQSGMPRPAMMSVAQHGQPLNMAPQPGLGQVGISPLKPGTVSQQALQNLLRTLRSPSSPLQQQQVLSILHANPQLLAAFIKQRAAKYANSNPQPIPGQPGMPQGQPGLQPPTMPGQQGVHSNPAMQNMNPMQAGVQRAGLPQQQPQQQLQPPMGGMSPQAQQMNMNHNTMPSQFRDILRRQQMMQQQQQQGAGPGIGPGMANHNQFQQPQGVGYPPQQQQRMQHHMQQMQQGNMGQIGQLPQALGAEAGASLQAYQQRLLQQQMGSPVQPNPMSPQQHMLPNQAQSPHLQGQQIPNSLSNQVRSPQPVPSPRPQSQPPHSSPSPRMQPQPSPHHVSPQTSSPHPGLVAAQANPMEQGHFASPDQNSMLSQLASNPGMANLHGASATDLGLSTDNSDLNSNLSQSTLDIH

Take `CNC(=O)COc1cc2cc(Nc3nc(N4CCC(C(=O)N5CCN(CCC(=O)N6CCC(n7nc(N8CCCc9cc(-c%10cnn(C)c%10)c(C(F)F)cc98)c8c7CCN(C(=O)NC)C8)CC6)CC5)CC4)ncc3Cl)cc(OC)c2n(C)c1=O` [TCIP3]: the “enrichment of BCL6 in p300 IP, log2(fold change)” value on p300 was found to be 4.0. Also, in the assay with p300^BD-BCL6^BTB, the “TR-FRET signal AUC, times higher than NEG1” value worked out at 23 times and the “TR-FRET signal AUC, times higher than NEG2” value came to 18 times.
